Results on 8 molecules are retold here after PubChem BioAssay (NCI).

The structures appear in SMILES notation. Several values for one entry are separate records, joined by “and”; a condition that tells them apart may be missing. Equal values may be shown once.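 Five concentrations, 48 hours, 96-well plates. The concentration for 50% growth inhibition is given as GI50. Definition used: TGI = concentration required for complete inhibition of growth.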

Among the test systems are 786-0 renal; ACHN renal; CCRF-CEM leukemia; MALME-3M melanoma; MCF7 breast; MDA-MB-231 breast; NCI-H23 lung; RPMI-8226 leukemia; SN12C renal; U251 CNS.
Common to all, as to assay: growth of human tumour cells (NCI), 48 h

Take `c1ccc(OCC[P+](c2ccccc2)(c2ccccc2)c2ccccc2)cc1`: the GI50 is 5.15 µM with 786-0 renal; 8.47 µM with ACHN renal; 0.981 µM in the assay on CCRF-CEM leukemia; 1.48 µM in the assay with MALME-3M melanoma; 1.24 µM with MCF7 breast; 2.44 µM in the assay on MDA-MB-231 breast. For the same molecule, the GI50 is 0.938 µM with NCI-H23 lung, 0.187 µM in the assay on RPMI-8226 leukemia, 1.94 µM in the assay with SN12C renal and 0.99 µM with U251 CNS. The TGI with 786-0 renal was 20.8 µM; in the assay on ACHN renal it was more than 81.9 µM; in the assay with CCRF-CEM leukemia, more than 41.4 µM; in the assay with MALME-3M melanoma, 12.9 µM; in the assay with MCF7 breast, 11.1 µM; in the assay on MDA-MB-231 breast it was 23.9 µM. Besides, the TGI in the assay on NCI-H23 lung is 6.7 µM; in the assay on RPMI-8226 leukemia, 2.14 µM; in the assay on SN12C renal, 16.4 µM; in the assay on U251 CNS it was 13 µM.

On to `COc1ccc(COc2ccc(Cc3cnc(N)nc3N)cc2OC)cc1`, for which the GI50 in the assay on 786-0 renal was more than 25 µM; in the assay on ACHN renal, more than 25 µM; with CCRF-CEM leukemia it was more than 25 µM; in the assay on MALME-3M melanoma, more than 5.1 µM; in the assay on MCF7 breast, 11.7 µM; in the assay with MDA-MB-231 breast it was 23.1 µM. In addition, the GI50 in the assay with NCI-H23 lung is more than 17.1 µM; in the assay with RPMI-8226 leukemia, more than 19.9 µM; in the assay on SN12C renal it was more than 25 µM; in the assay on U251 CNS, 21.4 µM. The TGI with 786-0 renal, in the assay with ACHN renal, with CCRF-CEM leukemia, in the assay with MALME-3M melanoma, in the assay with MCF7 breast and in the assay with MDA-MB-231 breast was more than 25 µM in each case. Further, the TGI in the assay on NCI-H23 lung, in the assay on RPMI-8226 leukemia, in the assay on SN12C renal and in the assay on U251 CNS was more than 25 µM throughout.

Regarding `CNC(=O)c1cc(Oc2ccc(NC(=O)Nc3ccc(Cl)c(C(F)(F)F)c3)cc2)ccn1`, the GI50 was 4.04 µM and 3 µM and 3.42 µM in the assay on 786-0 renal; 3.22 µM and 3.45 µM and 2.64 µM in the assay on ACHN renal; 3.18 µM and 4.35 µM and 2.27 µM with CCRF-CEM leukemia; 2.9 µM and 2.08 µM and 2.15 µM in the assay on MALME-3M melanoma; 2.62 µM and 2.41 µM and 2.82 µM in the assay on MCF7 breast; 1.74 µM and 1.62 µM and 1.33 µM with MDA-MB-231 breast. Besides, the GI50 in the assay with NCI-H23 lung was 2.19 µM and 1.65 µM and 1.95 µM; in the assay on RPMI-8226 leukemia it was 1.5 µM and 2.37 µM and 1.74 µM; in the assay with SN12C renal it was 2.84 µM and 2.98 µM and 2.31 µM; in the assay with U251 CNS it was 2.84 µM and 2.05 µM and 2.14 µM. Also, the TGI was > 10 µM and 9.4 µM and 13.2 µM in the assay on 786-0 renal; > 10 µM and 12 µM and 12.1 µM in the assay on ACHN renal; > 10 µM and > 100 µM and 16.7 µM with CCRF-CEM leukemia; > 10 µM and 6.71 µM and 11 µM in the assay on MALME-3M melanoma; 9.82 µM and 7.38 µM and 10 µM with MCF7 breast; 4.4 µM and 4.42 µM and 4.14 µM with MDA-MB-231 breast. The TGI was 9.84 µM and 5.55 µM and 8.21 µM in the assay on NCI-H23 lung; 6.25 µM and 6.93 µM and 6.04 µM in the assay with RPMI-8226 leukemia; > 10 µM and 10.6 µM and 7.15 µM with SN12C renal; > 10 µM and 5.82 µM and 5.94 µM with U251 CNS.

For `Cc1cccc(Nc2ncc(-c3ccccc3)o2)c1`, the GI50 with 786-0 renal is more than 25 µM; in the assay on ACHN renal it was more than 25 µM; in the assay on CCRF-CEM leukemia it was more than 25 µM; in the assay on MALME-3M melanoma, more than 25 µM; in the assay with MCF7 breast, 12.9 µM; in the assay on MDA-MB-231 breast it was more than 18.8 µM. The GI50 with NCI-H23 lung, in the assay with RPMI-8226 leukemia, with SN12C renal and in the assay on U251 CNS was more than 25 µM each time. The TGI in the assay with 786-0 renal, with ACHN renal, in the assay on CCRF-CEM leukemia, in the assay with MALME-3M melanoma, in the assay on MCF7 breast and in the assay with MDA-MB-231 breast was more than 25 µM throughout. Besides, the TGI in the assay with NCI-H23 lung, in the assay with RPMI-8226 leukemia, in the assay with SN12C renal and in the assay on U251 CNS was more than 25 µM in each case.

Regarding `CCN(Cc1c(F)cccc1C(F)(F)F)c1ccc(CO)c(Cl)c1`, the GI50 in the assay on 786-0 renal was 15.9 µM; in the assay with ACHN renal, 15 µM; in the assay on CCRF-CEM leukemia, 15.7 µM; in the assay on MALME-3M melanoma, 15.2 µM; with MCF7 breast it was 0.156 µM; in the assay with MDA-MB-231 breast, 14.6 µM. Further, the GI50 in the assay with NCI-H23 lung was 14.4 µM; in the assay with RPMI-8226 leukemia it was 1.47 µM; with SN12C renal, 13 µM; in the assay on U251 CNS, 0.623 µM. Further, the TGI was 30.9 µM in the assay with 786-0 renal; 28.6 µM in the assay with ACHN renal; 36.1 µM in the assay on CCRF-CEM leukemia; 30.1 µM with MALME-3M melanoma; 15.7 µM with MCF7 breast; 28.3 µM in the assay on MDA-MB-231 breast. Further, the TGI in the assay on NCI-H23 lung is 31.7 µM; in the assay with RPMI-8226 leukemia it was 21.9 µM; in the assay with SN12C renal, 26.2 µM; in the assay on U251 CNS, 17.5 µM.

Regarding `S=C1NC(c2ccccc2)NC(c2ccccc2)S1` (stereo not given), the TGI with 786-0 renal was more than 100 µM; in the assay with ACHN renal, more than 100 µM; in the assay with CCRF-CEM leukemia, 8.38 µM; with MALME-3M melanoma it was more than 100 µM; in the assay on MCF7 breast, more than 100 µM; in the assay on MDA-MB-231 breast, more than 100 µM. Moreover, the TGI in the assay with NCI-H23 lung, with RPMI-8226 leukemia, in the assay with SN12C renal and in the assay on U251 CNS was more than 100 µM in each case.

As for `C#Cc1cccc(NC(=O)C2CCCCN2C(=O)CCl)c1` (stereo not given), the GI50 with 786-0 renal was 16.2 µM; in the assay with ACHN renal it was 13.1 µM; with CCRF-CEM leukemia, 3.99 µM; with MALME-3M melanoma, 9.93 µM; with MCF7 breast, 15.8 µM; with MDA-MB-231 breast, 13.1 µM. Besides, the GI50 was 10.7 µM in the assay on NCI-H23 lung, 18 µM in the assay on RPMI-8226 leukemia, 12.2 µM in the assay with SN12C renal and 15.1 µM with U251 CNS. Moreover, the TGI was 32 µM with 786-0 renal; 24.5 µM with ACHN renal; 50.1 µM with CCRF-CEM leukemia; 22.4 µM in the assay on MALME-3M melanoma; more than 82.5 µM in the assay on MCF7 breast; 28.7 µM in the assay with MDA-MB-231 breast. Also, the TGI in the assay on NCI-H23 lung stood at 28.2 µM; in the assay on RPMI-8226 leukemia it was 51.5 µM; in the assay on SN12C renal it was 28.4 µM; in the assay on U251 CNS it was 35.8 µM.

Regarding `Nc1ncnc2c1ncn2Cc1ccc(CCl)cc1`, the GI50 in the assay with 786-0 renal was 27.5 µM; with ACHN renal it was 19.4 µM; with CCRF-CEM leukemia, 24.3 µM; in the assay with MALME-3M melanoma, 19 µM; in the assay on MCF7 breast, 11.7 µM; in the assay on MDA-MB-231 breast, 17.5 µM. In addition, the GI50 with NCI-H23 lung is 17.5 µM; with RPMI-8226 leukemia, 15.1 µM; in the assay with SN12C renal it was 21.2 µM; in the assay with U251 CNS, 21.9 µM. In addition, the TGI in the assay with 786-0 renal was 73.6 µM; with ACHN renal, 34.8 µM; in the assay on CCRF-CEM leukemia, more than 100 µM; in the assay on MALME-3M melanoma it was 43.4 µM; in the assay on MCF7 breast it was 62.7 µM; in the assay with MDA-MB-231 breast, 35.8 µM. For the same molecule, the TGI in the assay with NCI-H23 lung was 37.6 µM; in the assay on RPMI-8226 leukemia, more than 100 µM; in the assay on SN12C renal it was 35.6 µM; in the assay with U251 CNS, 40.6 µM.
